Reference: patent publication US8809341B2, “2,4-pyrimidinediamine compounds and uses as anti-proliferative agents” (Rigel Pharmaceuticals, Inc., priority 2003, dated 2014)
Read-outs that look alike come from different tables or passages of the source.

Columns and labels:
[1] = tested on: HCT116; assay: in vitro antiproliferation assay, HCT116 (colon); type: cell-based
Procedure: The IC50 values of various compounds against a various different tumor cell lines were determined using standard in vitro antiproliferation assays. The tumor cell lines tested were as follows: A549 (lung); H1299 (lung), ACHN (kidney/p53 wt), CAKI (renal cell carcinoma), NCI-H460 (lung); HCT116 (colon/p53w0; HELA (cervix/p53 wt), HUH7 (liver/p53 wt), HUVEC (primary endothelial), LNCAP (prostate), HT-29 (colon); MCF-7 (breast); MCF-7 (breast/ER positive), MDA MB435S (breast); MDA MB231 (breast/ER negative), DU145 (prostate); BxPC-3 (pancreatic); SKOV-3 (ovarian); HepG2 (hepatic), NDHF primary normal human dermal fibroblast), SKMEL28 (breast/p53mut), SKMEL5 (breast/p53 wt), U20S (bone) and PC3 (prostate). […] A blank indicates the specified compound was not tested against the specified cell line.
Many of the compounds were tested against other cell lines. Their activity is reported in TABLE 15, below, where +”, “−”, “−/+” or “+/−” values are as described for TABLES 1-14. Where the cell line includes a value in a parenthetical, the value indicates the seeding density at which the assay was performed

[2] = tested on: A549 cells; assay: in vitro antiproliferation assay, A549 (lung); type: cell-based; settings: A549 (lung) cells
Outline: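 Standard in vitro antiproliferation assays on tumour cell lines, including A549 and H1299 (both lung); IC50 values determined.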

[3] = HCT116 (colon), read-out: HCT116
[4] = in vitro antiproliferation, Table 4, compounds with no designated stereochemistry tested as racemate
[5] = Table 5, in vitro antiproliferation
[6] = Table 7, in vitro antiproliferation, colon cells, read-out: HTC116
[7] = Table 7, in vitro antiproliferation

Structure (SMILES) | IC50 [1, 3] [µM] | IC50 [2, 7] [µM] | further results
Oc1c(Cl)cc(Nc2ncc(F)c(Nc3ccc4c(c3)OCCO4)n2)cc1Cl [compound 507] | > 20 | – | IC50 [2, 5]: ≤ 20 µM
CC(C)Oc1cccc(Nc2nc(Nc3ccc4oc(C(=O)N5CCOCC5)cc4c3)ncc2F)c1 [compound 625] | – | ≤ 20 | IC50 [1, 6]: ≤ 20 µM
COC(=O)c1cc2cc(Nc3ncc(F)c(Nc4ccc5c(c4)NC(=O)C(C)(C)O5)n3)ccc2o1 [compound 677] | > 20 | ≤ 20 | IC50 [1, 6]: > 20 µM
Fc1cnc(Nc2cccc(Cl)c2)nc1Nc1cccc(Cl)c1 [compound 717] | > 20 | – | IC50 ([2]; in vitro antiproliferation): ≤ 20 µM
COc1ccc(Nc2ncc(F)c(Nc3ccc(OC)c(OC)c3)n2)cc1OC [compound 710] | ≤ 20 | – | IC50 ([2]; in vitro antiproliferation): ≤ 20 µM
COc1cc(Nc2ncc(F)c(Nc3cc(OC)cc(OC)c3)n2)cc(OC)c1 [compound 839] | ≤ 20 | – | IC50 ([2]; in vitro antiproliferation): ≤ 20 µM
CC1(C)Oc2ccc(Nc3nc(Nc4cccc(O)c4)ncc3F)cc2NC1=O [compound 356] | > 20 | – | –
CCOC(=O)c1cc2cccc(Nc3ncc(F)c(Nc4ccc5c(c4)OCCO5)n3)c2[nH]1 [compound 647] | ≤ 20 | ≤ 20 | IC50 [1, 6]: ≤ 20 µM
COc1cc(Nc2nc(Nc3cc(C)cc(C(F)(F)F)c3)ncc2F)cc(OC)c1 [compound 848] | ≤ 20 | – | IC50 ([2]; in vitro antiproliferation): ≤ 20 µM
COc1cc(Nc2ncc(F)c(Nc3ccc4c(c3)NC(=O)C(C)(C)O4)n2)cc(OC)c1 [compound 305] | ≤ 20 | – | IC50 [2, 4]: ≤ 20 µM
CNC(=O)COc1cccc(Nc2ncc(F)c(Nc3ccc4c(c3)NC(=O)[C@H](C)O4)n2)c1 [compound 300] | ≤ 20 | – | IC50 [2, 4]: ≤ 20 µM
Cc1cc(Nc2ncc(F)c(Nc3ccc4c(c3)OCCO4)n2)cc(C)c1Cl [compound 528] | ≤ 20 | – | IC50 [2, 5]: ≤ 20 µM
COC(=O)c1cc2cc(Nc3ncc(F)c(Nc4ccc(Cl)cc4)n3)ccc2o1 [compound 651] | > 20 | > 20 | –
CCOC(=O)c1cc2cccc(Nc3ncc(F)c(Nc4cccc(O)c4)n3)c2[nH]1 [compound 648] | – | ≤ 20 | IC50 [1, 6]: ≤ 20 µM
CNC(=O)c1cc2cc(Nc3ncc(F)c(Nc4ccc5c(c4)OCCO5)n3)ccc2o1 [compound 629] | ≤ 20 | ≤ 20 | IC50 [1, 6]: ≤ 20 µM
COc1cc(Nc2nc(Nc3cc(Cl)cc(Cl)c3)ncc2F)cc(OC)c1 [compound 847] | ≤ 20 | – | IC50 ([2]; in vitro antiproliferation): ≤ 20 µM
COC(=O)c1cc2cc(Nc3ncc(F)c(Nc4ccc(Cl)c(Cl)c4)n3)ccc2o1 [compound 652] | > 20 | > 20 | –
CC(=O)N1CCN(c2ccc(Nc3ncc(F)c(Nc4ccc5c(n4)NC(=O)CO5)n3)cc2)CC1 [compound 419] | ≤ 20 | – | –
Cc1cc(Nc2ncc(F)c(Nc3ccc4c(c3)NC(=O)C(C)(C)O4)n2)cc(Cl)c1O [compound 358] | < 20 | – | –
O=C(COc1cccc(Nc2ncc(F)c(Nc3ccc4c(c3)OCCO4)n2)c1)N1CCNCC1 [compound 497] | > 20 | – | IC50 [2, 5]: ≤ 20 µM

The next lines start with results.

IC50 [1, 3] [µM] | IC50 [2, 7] [µM] | Structure (SMILES) | further results
≤ 20 | – | CNC(=O)COc1cccc(Nc2ncc(F)c(Nc3cccc(OC)c3)n2)c1 [compound 755] | IC50 ([2]; in vitro antiproliferation): ≤ 20 µM
≤ 20 | – | CNC(=O)COc1cccc(Nc2ncc(F)c(Nc3cccc(O)c3)n2)c1 [compound 732] | IC50 ([2]; in vitro antiproliferation): ≤ 20 µM
≤ 20 | – | COc1cc(Nc2ncc(F)c(Nc3ccc4c(c3)NC(=O)C(C)(C)O4)n2)cc(C(F)(F)F)c1 [compound 309] | IC50 [2, 4]: ≤ 20 µM
≤ 20 | – | CC(=O)N1CCN(c2ccc(Nc3ncc(F)c(Nc4ccc5c(n4)NC(=O)C(C)(C)O5)n3)cc2)CC1 [compound 432] | –
≤ 20 | < 20 | O=C(c1cc2cc(Nc3ncc(F)c(Nc4ccc5c(c4)OCCO5)n3)ccc2o1)N1CCOCC1 [compound 626] | IC50 [1, 6]: ≤ 20 µM
≤ 20 | – | COc1c(Cl)cc(Nc2ncc(F)c(Nc3ccc4c(c3)NC(=O)C(C)(C)O4)n2)cc1Cl [compound 307] | IC50 [2, 4]: ≤ 20 µM
≤ 20 | – | CNC(=O)COc1cccc(Nc2ncc(F)c(Nc3cc(C)c(O)c(Cl)c3)n2)c1 [compound 991] | IC50 ([2]; antiproliferation): ≤ 20 µM
≤ 20 | ≤ 20 | O=C(c1cc2cc(Nc3ncc(F)c(Nc4cccc(O)c4)n3)ccc2o1)N1CCNCC1 [compound 633] | IC50 [1, 6]: ≤ 20 µM
